US11426412B2, “Imidazo-pyridine compounds as PAD inhibitors” (JUBILANT EPIPAD LLC, priority 2017, dated 2022)
Counter-ions that a name gives are not always drawn. Like-named read-outs stand apart in the source and are kept apart here.

Target: PAD4 (Homo sapiens (Human), UniProt Q9UM07)
Experiment: Ammonia release biochemical assay (citrullination)
[1] = read-out: NH3 release biochemical assay PAD4 IC50
[2] = Table 1, class A, read-out: IC50 value, ammonia release biochemical assay

PAD4, sequence (Q9UM07 whole entry): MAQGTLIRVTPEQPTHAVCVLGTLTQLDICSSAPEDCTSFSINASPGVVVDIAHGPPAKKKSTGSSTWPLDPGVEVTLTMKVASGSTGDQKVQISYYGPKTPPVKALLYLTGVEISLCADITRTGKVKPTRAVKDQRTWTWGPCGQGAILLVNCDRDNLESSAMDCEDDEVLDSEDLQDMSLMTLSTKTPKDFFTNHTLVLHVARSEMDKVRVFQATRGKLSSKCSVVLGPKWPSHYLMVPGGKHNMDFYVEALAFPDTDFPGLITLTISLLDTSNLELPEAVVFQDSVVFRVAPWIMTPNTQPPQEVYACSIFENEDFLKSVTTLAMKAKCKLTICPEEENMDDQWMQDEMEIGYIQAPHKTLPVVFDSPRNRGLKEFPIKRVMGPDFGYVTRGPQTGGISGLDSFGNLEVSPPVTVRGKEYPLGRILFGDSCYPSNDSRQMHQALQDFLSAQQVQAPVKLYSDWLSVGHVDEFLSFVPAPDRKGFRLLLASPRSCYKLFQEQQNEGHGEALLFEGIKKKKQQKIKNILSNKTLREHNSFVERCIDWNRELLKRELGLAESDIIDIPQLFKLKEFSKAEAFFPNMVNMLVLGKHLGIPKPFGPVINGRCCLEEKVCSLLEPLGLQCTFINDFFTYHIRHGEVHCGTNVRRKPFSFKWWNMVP

| IC50 [1] [µM] | IC50 [2] [µM] | Structure (SMILES) |
| --- | --- | --- |
| < 1 | ≤ 1 | CCn1c(-c2nc3cc(C(=O)N4CCC[C@@H](N)C4)ccn3c2C)cc2ccccc21 [Compound 4, (R)-(3-Aminopiperidin-1-yl)(2-(1-ethyl-1H-indol-2-yl)-3-methylimidazo[1,2-a]pyridin-7-yl)methanone] |
| > 10 |  | Cc1c(-c2cc3ccccc3n2CC2CC2)nc2cc(C(=O)N3CC[C@@H](N)C3)ccn12 [Compound 8, (R)-(3-Aminopyrrolidin-1-yl)(2-(1-(cyclopropylmethyl)-1H-indol-2-yl)-3-methylimidazo[1,2-a]pyridin-7-yl)methanone] |
| < 1 |  | Cc1c(-c2cc3ccccc3n2CC2CCC2)nc2cc(C(=O)N3CCC[C@@H](N)C3)ccn12 [Compound 61, (R)-(3-aminopiperidin-1-yl)(2-(1-(cyclobutylmethyl)-1H-indol-2-yl)-3-methylimidazo[1,2-a]pyridin-7-yl)methanone] |
| < 1 | ≤ 1 | COc1cccc2cc(-c3nc4cc(C(=O)N5CCC[C@@H](N)C5)ccn4c3C)n(CC3CC3)c12 [Compound 47, (R)-(3-aminopiperidin-1-yl)(2-(1-(cyclopropylmethyl)-7-methoxy-1H-indol-2-yl)-3-methylimidazo[1,2-a]pyridin-7-yl)methanone] |
| < 1 |  | Cc1c(-c2cc3ccccc3n2CC(C)C)nc2cc(C(=O)N3CCC[C@@H](N)C3)ccn12 [Compound 60, (R)-(3-aminopiperidin-1-yl)(2-(1-isobutyl-1H-indol-2-yl)-3-methylimidazo[1,2-a]pyridin-7-yl)methanone] |
| < 1 | ≤ 1 | Cc1ncc(Cn2c(-c3nc4cc(C(=O)N5CCC[C@@H](N)C5)ccn4c3C)cc3ccccc32)s1 [Compound 49, (R)-(3-aminopiperidin-1-yl)(3-methyl-2-(1-((2-methylthiazol-5-yl)methyl)-1H-indol-2-yl)imidazo[1,2-a]pyridin-7-yl)methanone] |
| < 1 | ≤ 1 | Cc1csc(Cn2c(-c3nc4cc(C(=O)N5CCC[C@@H](N)C5)ccn4c3C)cc3ccccc32)n1 [Compound 41, (R)-(3-aminopiperidin-1-yl)(3-methyl-2-(1-((4-methylthiazol-2-yl)methyl)-1H-indol-2-yl)imidazo[1,2-a]pyridin-7-yl)methanone] |
| > 10 |  | Cc1c(-c2c(Br)c3ccccc3n2CC2CC2)nc2cc(C(=O)N3CCC[C@@H](N)C3)ccn12 [Compound 1, (R)-(3-Aminopiperidin-1-yl)(2-(3-bromo-1-(cyclopropylmethyl)-1H-indol-2-yl)-3-methylimidazo[1,2-a]pyridin-7-yl)methanone] |
| < 1 | ≤ 1 | Cc1c(-c2cc3cccc(Cl)c3n2CC2CC2)nc2cc(C(=O)N3CCC[C@@H](N)C3)ccn12 [Compound 44, (R)-(3-aminopiperidin-1-yl)(2-(7-chloro-1-(cyclopropylmethyl)-1H-indol-2-yl)-3-methylimidazo[1,2-a]pyridin-7-yl)methanone] |
| > 10 |  | CCn1c(-c2nc3cc(C(=O)N4CC[C@@H](N)C4)ccn3c2C)cc2ccccc21 [Compound 7, (R)-(3-Aminopyrrolidin-1-yl)(2-(1-ethyl-1H-indol-2-yl)-3-methylimidazo[1,2-a]pyridin-7-yl)methanone] |
| < 1 | ≤ 1 | Cc1c(-c2cc3ccccc3n2Cc2cncnc2)nc2cc(C(=O)N3CCC[C@@H](N)C3)ccn12 [Compound 58, (R)-(3-aminopiperidin-1-yl) (3-methyl-2-(1-(pyrimidin-5-ylmethyl)-1H-indol-2-yl)imidazo[1,2-a]pyridin-7-yl)methanone Trifluoroacetic Acid Salt] |
| < 1 |  | Cc1c(-c2cc3ccccc3n2Cc2ccoc2)nc2cc(C(=O)N3CCC[C@@H](N)C3)ccn12 [Compound 37, (R)-(3-aminopiperidin-1-yl)(2-(1-(furan-3-ylmethyl)-1H-indol-2-yl)-3-methylimidazo[1,2-a]pyridin-7-yl)methanone] |

The remaining lines, values behind:

| Structure (SMILES) | IC50 [1] [µM] | IC50 [2] [µM] |
| --- | --- | --- |
| Cc1c(-c2cc3ccc(F)cc3n2Cc2ccncc2)nc2cc(C(=O)N3CCC[C@@H](N)C3)ccn12 [Compound 68, (R)-(3-aminopiperidin-1-yl)(2-(6-fluoro-1-(pyridin-4-ylmethyl)-1H-indol-2-yl)-3-methylimidazo[1,2-a]pyridin-7-yl)methanone] | < 1 |  |
| Cc1c(-c2cc3ccccc3n2Cc2ccc(F)cn2)nc2cc(C(=O)N3CCC[C@@H](N)C3)ccn12 [Compound 79, (R)-(3-aminopiperidin-1-yl)(2-(1-((5-fluoropyridin-2-yl)methyl)-1H-indol-2-yl)-3-methylimidazo[1,2-a]pyridin-7-yl)methanone] | < 1 |  |
| COc1ccc(Cn2c(-c3nc4cc(C(=O)N5CCC[C@@H](N)C5)ccn4c3C)cc3cc(F)ccc32)cc1 [Compound 75, (R)-(3-aminopiperidin-1-yl)(2-(5-fluoro-1-(4-methoxybenzyl)-1H-indol-2-yl)-3-methylimidazo[1,2-a]pyridin-7-yl)methanone] | < 1 |  |
| COc1ccc2cc(-c3nc4cc(C(=O)N5CCC[C@@H](N)C5)ccn4c3C)n(Cc3ccncc3)c2c1 [Compound 66, (R)-(3-aminopiperidin-1-yl)(2-(6-methoxy-1-(pyridin-4-ylmethyl)-1H-indol-2-yl)-3-methylimidazo[1,2-a]pyridin-7-yl)methanone] | > 10 |  |
| COc1ccc2cc(-c3nc4cc(C(=O)N5CCC[C@@H](N)C5)ccn4c3C)n(Cc3cccnc3)c2c1 [Compound 51, (R)-(3-aminopiperidin-1-yl) (2-(6-methoxy-1-(pyridin-3-ylmethyl)-1H-indol-2-yl)-3-methylimidazo[1,2-a]pyridin-7-yl)methanone] | < 1 |  |
| COc1ccc(Cn2c(-c3nc4cc(C(=O)N5CCC[C@@H](N)C5)ccn4c3C)cc3ccccc32)nc1 [Compound 63, (R)-(3-aminopiperidin-1-yl)(2-(1-((5-methoxypyridin-2-yl)methyl)-1H-indol-2-yl)-3-methylimidazo[1,2-a]pyridin-7-yl)methanone] | < 1 |  |
| COc1cccc(Cn2c(-c3nc4cc(C(=O)N5CCC[C@@H](N)C5)ccn4c3C)cc3cc(F)ccc32)c1 [Compound 53, (R)-(3-aminopiperidin-1-yl)(2-(5-fluoro-1-(3-methoxybenzyl)-1H-indol-2-yl)-3-methylimidazo[1,2-a]pyridin-7-yl)methanone] | < 1 |  |
| Cc1c(-c2cc3ccc(F)cc3n2Cc2ccc(F)cc2)nc2cc(C(=O)N3CCC[C@@H](N)C3)ccn12 [Compound 54, (R)-(3-aminopiperidin-1-yl)(2-(6-fluoro-1-(4-fluorobenzyl)-1H-indol-2-yl)-3-methylimidazo[1,2-a]pyridin-7-yl)methanone] | < 1 |  |
| COc1ccc2cc(-c3nc4cc(C(=O)N5CCC[C@@H](N)C5)ccn4c3C)n(CC(C)C)c2c1 [Compound 82, (R)-(3-aminopiperidin-1-yl)(2-(1-isobutyl-6-methoxy-1H-indol-2-yl)-3-methylimidazo[1,2-a]pyridin-7-yl)methanone] | < 1 | ≤ 1 |
| CCn1c(-c2nc3cc(C(=O)N4CC[C@@H](N)C4)ccn3c2C)c(-c2ccccc2)c2ccccc21 [Compound 6, (R)-(3-Aminopyrrolidin-1-yl)(2-(1-ethyl-3-phenyl-1H-indol-2-yl)-3-methylimidazo[1,2-a]pyridin-7-yl)methanone] | > 10 |  |
| Cc1c(-c2cc3cc(F)ccc3n2Cc2ccc(F)cc2)nc2cc(C(=O)N3CCC[C@@H](N)C3)ccn12 [Compound 76, (R)-(3-aminopiperidin-1-yl)(2-(5-fluoro-1-(4-fluorobenzyl)-1H-indol-2-yl)-3-methylimidazo[1,2-a]pyridin-7-yl)methanone] | < 1 |  |
| COc1cccc(Cn2c(-c3nc4cc(C(=O)N5CCC[C@@H](N)C5)ccn4c3C)cc3cc(F)c(F)cc32)c1 [Compound 55, (R)-(3-aminopiperidin-1-yl)(2-(5,6-difluoro-1-(3-methoxybenzyl)-1H-indol-2-yl)-3-methylimidazo[1,2-a]pyridin-7-yl)methanone] | < 1 |  |
| COc1ccc2cc(-c3nc4cc(C(=O)N5CCC[C@@H](N)C5)ccn4c3C)n(CC(F)F)c2c1 [Compound 83, (R)-(3-aminopiperidin-1-yl)(2-(1-(2,2-difluoroethyl)-6-methoxy-1H-indol-2-yl)-3-methylimidazo[1,2-a]pyridin-7-yl)methanone] | < 1 | ≤ 1 |
| COc1ccc(Cn2c(-c3nc4cc(C(=O)N5CCC[C@@H](N)C5)ccn4c3C)cc3ccc(F)cc32)cc1 [Compound 71, (R)-(3-aminopiperidin-1-yl)(2-(6-fluoro-1-(4-methoxybenzyl)-1H-indol-2-yl)-3-methylimidazo[1,2-a]pyridin-7-yl)methanone] | < 1 |  |
| Cc1c(-c2cc3ccccc3n2Cc2ncccc2F)nc2cc(C(=O)N3CCC[C@@H](N)C3)ccn12 [Compound 62, (R)-(3-aminopiperidin-1-yl)(2-(1-((3-fluoropyridin-2-yl)methyl)-1H-indol-2-yl)-3-methylimidazo[1,2-a]pyridin-7-yl)methanone] | < 1 |  |
| CCn1c(-c2nc3cc(C(=O)N4CCC[C@@H](N)C4)ccn3c2C)cc2ccc(OC)cc21 [Compound 67, (R)-(3-aminopiperidin-1-yl)(2-(1-ethyl-6-methoxy-1H-indol-2-yl)-3-methylimidazo[1,2-a]pyridin-7-yl)methanone] | < 1 |  |
| Cc1c(-c2cc3ccc(F)cc3n2Cc2cccnc2)nc2cc(C(=O)N3CCC[C@@H](N)C3)ccn12 [Compound 69, (R)-(3-aminopiperidin-1-yl)(2-(6-fluoro-1-(pyridin-3-ylmethyl)-1H-indol-2-yl)-3-methylimidazo[1,2-a]pyridin-7-yl)methanone] | < 1 |  |
| Cc1c(-c2cc3ccccc3n2Cc2ccc(F)cc2)nc2cc(C(=S)N3CCC[C@@H](N)C3)ccn12 [Compound 45, (R)-(3-aminopiperidin-1-yl)(2-(1-(4-fluorobenzyl)-1H-indol-2-yl)-3-methylimidazo[1,2-a]pyridin-7-yl)methanethione] | < 1 | ≤ 1 |
